Reference: US5789404A, “3-substituted 1-arylindole compounds” (H. Lundbeck A/S, priority 1993, dated 1998)
Counter-ions that a name gives are not always drawn. Like-named read-outs stand apart in the source and are kept apart here.

Columns and labels:
5-HT2 receptors = biological target: T1, 5-HT2 receptors (Rattus norvegicus, UniProt P14842); assay: Inhibition of ^3 H-Ketanserin Binding to 5-HT2 Receptors in Rat Cortex in vitro
T1 construct: 5-HT2 Receptors in Rat Cortex in vitro; from tissue; host or cells: rat cortex membranes
T1 sequence (P14842 whole entry): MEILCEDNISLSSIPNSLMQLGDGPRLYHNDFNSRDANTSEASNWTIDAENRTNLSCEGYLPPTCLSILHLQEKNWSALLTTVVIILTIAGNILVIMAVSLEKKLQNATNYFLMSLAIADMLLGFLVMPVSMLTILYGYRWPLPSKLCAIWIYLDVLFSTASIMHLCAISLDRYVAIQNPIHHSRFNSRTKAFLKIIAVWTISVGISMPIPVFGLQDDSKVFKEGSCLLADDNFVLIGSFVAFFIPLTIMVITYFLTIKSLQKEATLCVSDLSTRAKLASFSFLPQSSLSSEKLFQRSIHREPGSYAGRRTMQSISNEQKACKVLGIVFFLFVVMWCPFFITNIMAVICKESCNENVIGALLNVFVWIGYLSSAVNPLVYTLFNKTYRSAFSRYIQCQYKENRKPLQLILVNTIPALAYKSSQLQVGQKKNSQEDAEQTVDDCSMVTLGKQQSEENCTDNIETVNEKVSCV
Method: Inhibition of ^3 H-Ketanserin Binding to 5-HT2 Receptors in Rat Cortex in vitro
By this method the inhibition by drugs of the binding of ^3 H-Ketanserin (0,5 nM) to 5-HT2 receptors in membranes from rat is determined in vitro. The method is described in Hyttel, Pharmacol. & Toxicol.

dopamine D2 receptors = dopamine D2 receptors (Rattus norvegicus, UniProt P61169); assay: biochemical; type: binding
Chain of dopamine D2 receptors (P61169 whole entry): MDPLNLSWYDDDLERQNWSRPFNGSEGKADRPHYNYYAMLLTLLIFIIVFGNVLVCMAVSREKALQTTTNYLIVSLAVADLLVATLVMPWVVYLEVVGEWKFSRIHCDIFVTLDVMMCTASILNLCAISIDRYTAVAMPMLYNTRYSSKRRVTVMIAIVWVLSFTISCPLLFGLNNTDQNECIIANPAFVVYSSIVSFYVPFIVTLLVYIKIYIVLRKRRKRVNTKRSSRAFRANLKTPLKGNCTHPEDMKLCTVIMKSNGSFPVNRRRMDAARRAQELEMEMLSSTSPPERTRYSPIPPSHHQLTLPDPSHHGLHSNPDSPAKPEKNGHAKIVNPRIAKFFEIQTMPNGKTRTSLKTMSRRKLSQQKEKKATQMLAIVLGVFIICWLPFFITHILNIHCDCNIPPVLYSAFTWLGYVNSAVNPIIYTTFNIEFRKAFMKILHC
Method: Inhibition of ^3 H-Spiroperidol Binding to Dopamine D2 Receptors in Rat Corpus Striatum in vitro
By this method the inhibition by drugs of the binding of ^3 H-spiroperidol (0.5 nM) to dopamine D2 receptors in membranes from rat corpus striatum is determined in vitro.

[1] = ^3 H-Ketanserin 0,5 nM, rat cortex membranes, read-out: 5-HT2 binding ^3 H ketanserin, IC50
[2] = ^3 H-spiroperidol 0.5 nM, rat corpus striatum membranes, read-out: Dopamin D2 binding ^3 H spiroperidol, IC50
[3] = read-out: Dopamin D2 binding ^3 H spiroperidol, IC50

| Molecule | IC50 (5-HT2 receptors; [1]) | IC50 (dopamine D2 receptors; [2]) | IC50 (dopamine D2 receptors; [3]) | further results |
| --- | --- | --- | --- | --- |
| CN(CCCc1cn(-c2ccc(F)cc2)c2ccc(Cl)cc12)CCN1CCNC1=O [Compound 3b, 1-[2-[[3-[5-chloro-1-(4-fluorophenyl)-3-1H-indolyl]propyl]methylamino]ethyl]-2-imidazolidinone fumarate] | 7.8 nM | 190 nM |  |  |
| CN(CCOc1cn(-c2ccc(F)cc2)c2cc(Cl)ccc12)CCN1CCNC1=O [Compound 4h, 1-[2-[[2-[6-chloro-1-(4-fluorophenyl)-3-1H-indolyloxy]ethyl]methylamino]ethyl]-2-imidazolidinone] | 2 nM | 200 nM |  |  |
| CNC(=O)C1CCN(CCOc2cn(-c3ccc(F)cc3)c3ccc(Cl)cc23)CC1 [Compound 4n, N-methyl-1-[2-[5-chloro-1-(4-fluorophenyl)-3-1H-indolyloxy]ethyl]4-piperidinecarboxamide] | 28 nM | 4.7 nM |  |  |
| Fc1ccc(-n2cc(CCN3CCOCC3)c3cc(Cl)ccc32)cc1 [Compound 14c, 5-chloro-1-(4-fluorophenyl)-3-(2-(4-morpholinyl)ethyl)-1H-indole fumarate] | 22 nM |  |  | IC50 (dopamine D2 receptors): 54 nM |
| CN(C)Cc1cn(-c2ccc(F)cc2)c2ccc(Cl)cc12 [Compound 13a, N,N-Dimethyl-[5-chloro-1-(4-fluorophenyl)-3-1H-indolyl]methylamine Maleate] | 12 nM | 19 nM |  |  |
| C#CCN(CCOc1cn(-c2ccc(F)cc2)c2ccc(Cl)cc12)CCN1CCNC1=O [Compound 4d, 1-[2-[[2-[5-Chloro-1-(4-fluorophenyl)-3-1H-indolyloxy]ethyl](3-propynyl)amino]ethyl]-2-imidazolidinone oxalate] | 220 nM | 190 nM |  |  |
| CNCc1cn(-c2ccc(F)cc2)c2ccc(Cl)cc12 [Compound 13b, N-methyl-[5-chloro-1-(4-fluorophenyl)-3-1H-indolylmethyl]amine hydrochloride] | 21 nM |  | 33 nM |  |
| CN(C)C(C)(C)COc1cn(-c2ccc(F)cc2)c2ccc(Cl)cc12 [Compound 6c, N,N-Dimethyl-1,1-dimethyl-2-[5-chloro-1-(4-fluorophenyl)-3-1H-indolyloxy]ethylamine oxalate] | 42 nM |  | 330 nM |  |
| CN(CCOc1cn(-c2ccc(F)cc2)c2ccc(Cl)cc12)CCN1CCNC1=O [Compound 4b, 1-[2-[[2-[5-chloro-1-(4-fluorophenyl)-3-1H-indolyloxy]ethyl]methylamino]ethyl]-2-imidazolidinone Maleate] | 0.88 nM | 5.8 nM |  |  |
| CN(C)CCOc1c(CO)n(-c2ccc(F)cc2)c2ccc(Cl)cc12 [Compound 9a, N,N-Dimethyl-2-[5-chloro-1-(4-fluorophenyl)-2-hydroxymethyl-3-1H-indolyloxy]ethylamine Hydrochloride] |  |  | 430 nM | IC50 (5-HT2 receptors): 38 nM |
| Fc1ccc(-n2cc(OCCN3CCOCC3)c3cc(Cl)ccc32)cc1 [Compound 4f, 5-Chloro-1-(4-fluorophenyl)-3-[2-(4-morpholinyl)ethoxy]-1H-indole maleate] | 48 nM | 27 nM |  |  |
| CN(CCSc1cn(-c2ccc(F)cc2)c2ccc(Cl)cc12)CCN1CCNC1=O [Compound 4r, 1-[2-[[2-[5-Chloro-1-(4-fluorophenyl)-3-1H-indolylthio]ethyl]methylamino]ethyl]-2-imidazolidinone] | 86 nM |  |  | IC50 (dopamine D2 receptors): 770 nM |
| CN(C)CCOc1cn(-c2ccc(F)cc2)c2ccc(C#N)cc12 [Compound 17a, N,N-Dimethyl-2-[5-cyano-1-(4-fluorophenyl)-1H-indol-3-yloxy]ethylamine, Hydrochloride] | 21 nM |  | 0.98 nM |  |
| C[C@H](COc1cn(-c2ccc(F)cc2)c2ccc(Cl)cc12)N(C)C [Compound 6b, (R)-N,N-Dimethyl-2-[5-chloro-1-(4-fluorophenyl)-3-1H-indolyloxy]-1-methylethylamine oxalate] | 21 nM |  | 37 nM |  |
| 5-Chloro-1-(4-fluorophenyl)-3-[3-(4-piperidinyl)propyl]-1H-indole hydrochloride [Compound 3d] | 110 nM | 21 nM |  |  |
| CN(CCCN1CCNC1=O)CCc1cn(-c2ccc(F)cc2)c2ccc(Cl)cc12 [Compound 4u, 1-[3-[[2-[5-chloro-1-(4-fluorophenyl)-3-1H-indolyl]ethyl]methylamino]propyl]-2-imidazolidinone hydrochloride] | 1 nM |  | 19 nM |  |
| Fc1ccc(-n2cc(OCCN3CCCCC3)c3cc(Cl)ccc32)cc1 [Compound 4e, 5-Chloro-1-(4-fluorophenyl)-3-[2-(1-piperidinyl)ethoxy]-1H-indole] | 5.9 nM | 2.3 nM |  |  |
| CN(C)CCCc1cn(-c2ccc(F)cc2)c2ccc(Cl)cc12 [Compound 3a, N,N-Dimethyl-3-[5-chloro-1-(4-fluorophenyl)-3-1H-indolyl]propylamine fumarate] | 19 nM | 42 nM |  |  |

| Molecule | IC50 (5-HT2 receptors; [1]) | IC50 (dopamine D2 receptors; [2]) | IC50 (dopamine D2 receptors; [3]) | further results |
| --- | --- | --- | --- | --- |
| O=C1NCCN1CCC1CCN(CCOc2cn(-c3ccc(F)cc3)c3ccc(Cl)cc23)CC1 [Compound 4k, 1-[2-[1-[2-[5-Chloro-1-(4-fluorophenyl)-3-1H-indolyloxy]ethyl]-4-piperidinyl]ethyl]-2-imidazolidinone] | 21 nM | 2.6 nM |  |  |
| CN(C)CCc1cn(-c2ccc(F)cc2)c2ccc(Cl)cc12 [Compound 14b, N,N-Dimethyl-2-(5-chloro-1-(4-fluorophenyl)-3-1H-indolyl)ethylamine maleate] | 8.9 nM |  | 38 nM |  |
| Fc1ccc(-n2cc(CCCN3CCOCC3)c3cc(Cl)ccc32)cc1 [Compound 3c, 5-Chloro-1-(4-fluorophenyl)-3-[3-(4-morpholinyl)propyl]-1H-indole maleate] | 310 nM | 26 nM |  |  |
| CN(CCc1cn(-c2ccc(F)cc2)c2ccc(Cl)cc12)CCN1CCNC1=O [Compound 4v, 1-[2-[[2-[5-chloro-1-(4-fluorophenyl)-3-1H-indolyl]ethyl]methylamino]ethyl]-2-imidazolidinone maleate] | 5.3 nM | 25 nM |  |  |
| CN(C)CCOc1cn(-c2ccc(F)cc2)c2ccc(Cl)cc12 [Compound 4a, N,N-Dimethyl-2-[5-chloro-1-(4-fluorophenyl)-3-1H-indolyloxy]ethylamine sesqui fumarate] | 4.2 nM | 2.9 nM |  |  |
| Fc1ccc(-n2cc(OCCN3CCCC3)c3ccc(Cl)cc32)cc1 [Compound 4o, 6-Chloro-1-(4-fluorophenyl)-2-(1-pyrrolidinyl)ethoxy-1H-indole] |  | 23 nM |  | IC50 (5-HT2 receptors): 30 nM |
| CN(C)CCSc1cn(-c2ccc(F)cc2)c2ccc(Cl)cc12 [Compound 4q, N,N-Dimethyl-2-[5-chloro-1-(4-fluorophenyl)-3-1H-indolylthio]ethylamine hydrochloride] | 43 nM |  | 140 nM |  |
| CN(C)CCOc1cn(-c2ccc(F)cc2)c2ccc(Br)cc12 [Compound 16a, N,N-Dimethyl-2-[5-bromo-1-(4-fluorophenyl)-1H-indol-3-yloxy]ethylamine, Hydrochloride] | 7 nM |  | 6.2 nM |  |
| Fc1ccc(-n2cc(OCCN3CCCCC3)c3ccc(Cl)cc32)cc1 [Compound 4p, 6-Chloro-1-(4-fluorophenyl)-2-(1-piperidinyl)ethoxy-1H-indole] |  | 17 nM |  | IC50 (5-HT2 receptors): 35 nM |
| CC(C)N1CCN(CCN(C)CCOc2cn(-c3ccc(F)cc3)c3cc(Cl)ccc23)C1=O [Compound 4i, 1-[2-[[2-[6-Chloro-1-(4-fluorophenyl)-3-1H-indolyloxy]ethyl]methylamino]ethyl]-3-(2-propyl)-2-imidazolidinone oxalate] | 6.3 nM |  | 120 nM |  |
| CN(CCN1CCNC1=O)Cc1cn(-c2ccc(F)cc2)c2ccc(Cl)cc12 [Compound 4s, 1-[2-[[5-chloro-1-(4-fluorophenyl)-3-1H-indolylmethyl]methylamino]ethyl]-2-imidazolidinone] | 20 nM | 22 nM |  |  |
| C[C@@H](CN(C)CCOc1cn(-c2ccc(F)cc2)c2ccc(Cl)cc12)N1CCNC1=O [Compound 8b, (S)-1-[1-methyl-2-[[2-[5-chloro-1-(4-fluorophenyl)-3-1H-indolyloxy]ethyl]methylamino]ethyl]-2-imidazolidinone oxalate] | 220 nM |  | 35 nM |  |
| O=C1NCCN1CCN1CCC[C@@H]1COc1cn(-c2ccc(F)cc2)c2ccc(Cl)cc12 [Compound 8a, (R)-1-[2-[2-[5-Chloro-1-(4-fluorophenyl)-3-1H-indolyloxymethyl]-1-pyrrolidinyl]ethyl]-2-imidazolidinone Oxalate] | 49 nM |  | 8.1 nM |  |
| CN1CCC[C@H]1COc1cn(-c2ccc(F)cc2)c2ccc(Cl)cc12 [Compound 7a, (S)-1-Methyl-2-pyrrolidinylmethoxy-5-chloro-1-(4-fluorophenyl)-1H-indole Oxalate] | 18 nM | 30 nM |  |  |
| Cc1c(OCCN(C)C)c2cc(Cl)ccc2n1-c1ccc(F)cc1 [Compound 10, N,N-Dimethyl-2-[5-chloro-1-(4-fluorophenyl)-2-methyl-3-1H-indolyloxy]ethylamine Oxalate] | 11 nM |  | 83 nM |  |
| CNCCc1cn(-c2ccc(F)cc2)c2ccc(Cl)cc12 [Compound 15a, N-methyl-2-(5-chloro-1-(4-fluorophenyl)-3-1H-indolyl)ethylamine Maleate] | 17 nM |  |  | IC50 (dopamine D2 receptors): 24 nM |
| CN1CCCC1COc1cn(-c2ccc(F)cc2)c2ccc(Cl)cc12 (stereo in doubt) [Compound 7b, (S)-1-Methyl-2-pyrrolidinylmethoxy-5-chloro-1-(4-fluorophenyl)-1H-indole oxalate] |  | 18 nM |  | IC50 (5-HT2 receptors; read-out: 5-HT2 binding ^3 H ketanserin, IC50, ^3 H-Ketanserin 0,5 nM, rat cortex membranes): 8.2 nM |
